# Experiments:
# CCND1 = assay: Immunoblotting, protein expression in LSMC; assay type: cell-based, human; conditions: Tranilast 200 μM, 48 h, Western blot, P<0.05
# Experimental: (§1) Total protein isolated from LSMC treated with Tranilast (200 μM) at sub-confluence for 48 hrs and from tissues was subjected to immunoblotting as previously described (Chuang et al., “miR-29c induction contributes to downregulation of vascular extracellular matrix proteins by glucocorticoids,” American journal of physiology Cell physiology (2015) 309:C117-25). Specific antibodies generated against CCND1, COL3A1, TGF-β3 (Proteintech Group, Inc., Chicago, Ill.), CDK2, DNMT1 (Santa Cruz Biotechnology, Dallas, Tex.), COL1 (Fitzgerald Industries Intl., Acton, Mass.) and EZH2 (Cell Signaling Technology, Danvers, Mass.) were used to detect specific protein expression. The membranes were also stripped and probed with GAPDH antibody (Proteintech Group, Inc.) serving as loading control.
# CDK2 = assay: Immunoblotting, protein expression in LSMC; assay type: cell-based, human; conditions: Tranilast 200 μM, 48 h, Western blot, P<0.05
# Experimental: as §1
# COL1 = assay: Immunoblotting, protein expression in LSMC; assay type: cell-based, human; conditions: Tranilast 200 μM, 48 h, Western blot, P<0.05
# Experimental: as §1
# COL3A1 = assay: Immunoblotting, protein expression in LSMC; assay type: cell-based, human; conditions: Tranilast 200 μM, 48 h, Western blot, P<0.05
# Experimental: as §1
# DNMT1 = assay: Immunoblotting, protein expression in LSMC; assay type: cell-based, human; conditions: Tranilast 200 μM, 48 h, Western blot, P<0.05
# Experimental: as §1
# EZH2 = assay: Immunoblotting, protein expression in LSMC; assay type: cell-based, human; conditions: Tranilast 200 μM, 48 h, Western blot, P<0.05
# Experimental: as §1
# TGF-β3 = assay: Immunoblotting, protein expression in LSMC; assay type: cell-based, human; conditions: Tranilast 200 μM, 48 h, Western blot, P<0.05
# Experimental: as §1
# [1] = system: NF-Kb (p65) binding elements in the miR-200c promoter; assay: CHIP assay, p65 binding in the miR-200c promoter in LSMC; assay type: cell-based, human; conditions: Tranilast 200 μM, 48 hrs, percent input method
# leiomyoma xenografts = assay: Leiomyoma xenograft mouse model (LSMC under the kidney capsule); assay type: in vivo, CB-17 SCID/beige mice; conditions: Tranilast 50 mg/kg/day i.p. daily for 3 weeks, mice
# Description: We injected primary leiomyoma cells under the kidney capsule of CB-17 SCID/beige mice using a 27 g needle as previously reported (Ishikawa et al., “Progesterone is essential for maintenance and growth of uterine leiomyoma,” Endocrinology (2010) 151: 2433-2442; Ono et al, “Paracrine activation of WNT/beta-catenin pathway in uterine leiomyoma stem cells promotes tumor growth,” Proceedings of the National Academy of Sciences of the United States of America (2013) 110: 17053-17058). After two weeks we excised the xenograft, fixed the tissue, embedded it in paraffin and obtained 5 μm sections for staining. […] This animal model is used to evaluate the efficacy of Tranilast on tumor initiation, progression, histology, and expression of miR-200c and miR-29c and their respective target genes.
# Freshly isolated LSMC are injected under the kidney capsule of female ovariectomized CB-17 SCID/beige mice implanted with pellet containing estradiol (0.05 mg/90 d release) and progesterone (25 mg/60 d release) as previously reported (Ishikawa et al., “Progesterone is essential for maintenance and growth of uterine leiomyoma,” Endocrinology (2010) 151: 2433-2442; Ono et al, “Paracrine activation of WNT/beta-catenin pathway in uterine leiomyoma stem cells promotes tumor growth,” Proceedings of the National Academy of Sciences of the United States of America (2013) 110: 17053-17058). For injections of leiomyoma cells, freshly isolated cells from hysterectomy specimens are suspended in rat-tail collagen (type I) solution (BD Biosciences) at 1×10^6 cells/10 μl and grafted onto kidney capsule.
# To determine the effects of Tranilast on tumor initiation, immediately after subcapsular injection of cells mice (10 per group) will be treated i.p. daily for 3 weeks with vehicle (1% DMSO) or Tranilast (50 mg/kg/day) (Kim et al., “Effects of tranilast and pentoxifylline in a mouse model of chronic asthma using house dust mite antigen,” The Journal of asthma: official journal of the Association for the Care of Asthma (2009) 46: 884-894) at which point the animals are sacrificed and tumors excised, weighed and measured and subjected for further analyses detailed below.
# To determine tumor progression in an additional four groups (10/group), LMSC cells are injected under the kidney capsule and tumors are allowed to develop for five weeks. Mice are then injected i.p. daily for 3 more weeks with vehicle or Tranilast (50 mg/kg/day) (Kim et al., “Effects of tranilast and pentoxifylline in a mouse model of chronic asthma using house dust mite antigen,” The Journal of asthma: official journal of the Association for the Care of Asthma (2009) 46: 884-894) at which time the animals are sacrificed and tumors excised, weighed, measured and subjected for further analysis.
# For tumor analysis, portions of tumors are allocated for RNA and protein extraction, and the remainder fixed in 4% neutral-buffered formalin and embedded in paraffin (FFPE) for histologic analysis. To assess the rate of collagen deposition, 5 μm cut paraffin sections are subjected to histologic analysis and stained with Masson's Trichrome and Sirius Red (Sigma-Aldrich), and images are analyzed by Image-Pro Plus software (Media Cybernetics) as described in detail in our prior publications (Khorram et al., “Nutrient restriction in utero induces remodeling of the vascular extracellular matrix in rat offspring,” Reproductive sciences (2007) 14: 73-80; Khorram et al., “In utero undernutrition in rats induces increased vascular smooth muscle content in the offspring, American journal of obstetrics and gynecology (2007) 196: 486.e481-488). For Immunohistochemistry, the sections are de-paraffinized in xylene, and heated in 0.01 M citrate buffer for 15 min in a microwave oven. Slides are then incubated in methanol containing 0.3% hydrogen peroxide. Slides are incubated with primary antibody or control serum, washed, and followed by application of secondary antibody. The chromogen used is diaminobenzidine (DAKO). […]
compound,measurement,setting,value
"COc1ccc(C=CC(=O)Nc2ccccc2C(=O)O)cc1OC [Tranilast, 2-[[3-(3,4-dimethoxyphenyl)-1-oxo-2-propenyl]amino]benzoic acid]","CCND1 expression, protein level",CCND1,significantly inhibited
same,"CDK2 expression, protein level",CDK2,significantly inhibited
same,"COL1 expression, protein level",COL1,significantly inhibited
same,"COL3A1 expression, protein level",COL3A1,significantly inhibited
same,"DNMT1 expression, protein level",DNMT1,significantly inhibited
same,"EZH2 expression, protein level",EZH2,significantly inhibited
same,"TGF-β3 expression, protein level",TGF-β3,significantly inhibited
same,p65 binding ability in miR-200c promoter,[1],decreased
same,NF-kB signaling in xenograft,leiomyoma xenografts,inhibition
same,cell proliferation (Ki-67 and PCNA labeling index),leiomyoma xenografts,reduce
same,leiomyoma size,leiomyoma xenografts,shrinkage
same,methytransferases (DNMT1) in xenograft,leiomyoma xenografts,inhibition
same,miR-29c expression in xenograft,leiomyoma xenografts,up-regulate
same,miR-200c expression in xenograft,leiomyoma xenografts,up-regulate
same,rate of collagen deposition (Sirius Red staining),leiomyoma xenografts,reduce

# From patent publication US10517842B2, “Methods of modulating miRNA levels and compositions for use in the same” (Los Angeles Biomedical Research Institute at Harbor-UCLA …, priority 2017, dated 2019)
